From paper PMC10916400, “Effect of the aggregated protein dye YAT2150 on Leishmania parasite viability” (Antimicrobial Agents and Chemotherapy, 2024)

Tests used:
[1] = system: L. infantum promastigotes; assay: microbe, parasite or virus in culture; format: cell-based, Leishmania infantum; details: L. infantum promastigotes; for IC50: in vitro
Procedure: L. infantum (MHOM/ES/2016/CATB101) promastigotes were maintained at 26°C in complete Schneider’s medium (Schneider’s insect medium supplemented with 10% FBS, 25 µg/mL gentamycin, 1% penicillin-streptomycin, and 1% sterile human urine, pH 6.7). For growth inhibition assays, promastigotes were used in the logarithmic growth phase, whereas for the infection of macrophages and generation of amastigotes they were used in the stationary phase. Axenic amastigotes were obtained following established protocols ([40], [57][–][59]); briefly, 1 × 10^7 promastigotes/mL in stationary phase were cultured in Schneider’s insect medium supplemented with 20% FBS, 25 µg/mL gentamycin, and 3.9 g/L of 2-(N-morpholino)ethanesulfonic acid, at pH 5.4 and 37°C. After 48 h, the typical rounded morphology of axenic amastigotes and their flagellum shortening could be observed. This culture was used within a week after its preparation.
In 96-well microtiter plates (Nunclon Delta surface; Thermo Fisher Scientific Inc.), serial dilutions (1:2) of the drugs or peptides were performed, either free or loaded in nanoformulations, in 100 µL of complete Schneider’s medium, to which one volume of 2 × 10^6 logarithmic growth-phase L. infantum promastigotes/mL in the same buffer was added. After 48 h, resazurin sodium salt was incorporated at a final concentration of 0.00125% and the plates were incubated at 26°C for another 24 h, when fluorescence from resorufin was measured as described above.

[2] = Caco-2 permeability assay; format: in vitro ADME; details: human
Procedure: (§1) Caco-2 cells (ATCC under the license of Abcam Inc., doing business as NaviCyte Scientific, Berkeley, CA) cultured to confluency were trypsinized and seeded onto a filter transwell insert (high-throughput screening Transwell 96-well permeable supports; Corning Inc.) at a density of ~10,000 cells/well in Dulbecco’s modified Eagle’s medium (DMEM). Confluent cells were subcultured at passages 58–62 and grown in a humidified atmosphere of 5% CO2 at 37°C. Following an overnight attachment period (24 h after seeding), the cell medium was replaced every other day with fresh medium in both the apical and basolateral compartments. The cell monolayers were used for transport studies 21 days post-seeding, when monolayer integrity was checked by measuring the transepithelial electrical resistance (TEER). If TEER values were ≥500 Ω/cm^2, the medium was removed and the cells were washed twice with pre-warmed (37°C) Hank’s Balanced Salt Solution (HBSS). Compound stock solutions were made in DMSO and further diluted in HBSS (1% final DMSO concentration). All compounds, including controls (colchicine, E3S), were tested at a final concentration of 5 to 10 µM. For A → B directional transport, the donor working solution was added to the apical compartment (A) and HBSS as receiver working solution to the basolateral compartment (B). For B → A directional transport, the donor working solution was added to B and HBSS as receiver working solution to A. The cells were incubated at 37°C for 120 min with gentle stirring. At the end of the incubation, samples were taken from both donor and receiver compartments and transferred into 384-well plates, and compound concentrations were determined by UPLC-MS/MS analysis as for the plasma stability assay.

Caco-2 cells = assay: Caco-2 permeability assay; format: in vitro ADME; details: Caco-2, A→B, 37°C
Procedure: as §1

CYP2C19 = target: T1, CYP2C19 (Homo sapiens, UniProt P33261); assay: Cytochrome inhibition activity assay; format: biochemical; details: human recombinant enzyme, 37°C
T1 construct: host or cells: baculovirus-infected insect cells (microsomes)
T1 sequence (P33261 whole entry): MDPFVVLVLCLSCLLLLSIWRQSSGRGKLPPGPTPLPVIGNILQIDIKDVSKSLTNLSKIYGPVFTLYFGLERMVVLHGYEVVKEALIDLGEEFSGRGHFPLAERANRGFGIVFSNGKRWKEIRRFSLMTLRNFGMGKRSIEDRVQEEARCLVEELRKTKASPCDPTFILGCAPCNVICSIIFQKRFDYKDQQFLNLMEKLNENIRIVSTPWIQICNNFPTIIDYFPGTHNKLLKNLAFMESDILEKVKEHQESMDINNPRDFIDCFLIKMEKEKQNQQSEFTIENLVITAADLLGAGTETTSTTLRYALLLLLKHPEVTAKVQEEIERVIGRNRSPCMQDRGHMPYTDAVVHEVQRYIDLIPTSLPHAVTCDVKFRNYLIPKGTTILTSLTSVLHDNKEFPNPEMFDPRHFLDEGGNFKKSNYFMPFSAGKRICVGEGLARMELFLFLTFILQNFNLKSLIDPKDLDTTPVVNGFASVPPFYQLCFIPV
Procedure: To screen the inhibition potential of the compounds using recombinant human cytochrome P450 enzymes (CYP1A2, CYP2C9, CYP2C19, and CYP2D6) and probe substrates with fluorescent detection, incubations were conducted in a 200-µL volume in 96-well microtiter plates (Costar #3915; Corning Inc.). Addition of cofactor-buffer mixture (0.2 M KH2PO4 buffer, 1.3 mM NADP, 3.3 mM MgCl2, 3.3 mM glucose-6-phosphate, and 0.4 U/mL glucose-6-phosphate dehydrogenase), previously diluted control Supersomes (insect cell control for Supersomes enzymes, baculovirus-insect cell-expressed; Corning Inc.), standard inhibitors (furafylline, tranylcypromine, sulfaphenazole, and quinidine), and test compounds was carried out by a Zephyr liquid handling station (Caliper Life Sciences, Hopkinton, MA, US). The plate was then pre-incubated at 37°C for 5 min, and the reaction was initiated by the addition of pre-warmed enzyme/substrate mix, which contained buffer (KH2PO4), cDNA-expressed P450 in insect cell microsomes, substrate (3-cyano-7-ethoxycoumarin for CYP1A2 and CYP2C19, 7-methoxy-4-(trifluoromethyl)coumarin for CYP2C9, and 3-[2-(N,N-diethyl-N-methylammonium)ethyl]-7-methoxy-4-methylcoumarin for CYP2D6) to obtain the final assay concentrations in a reaction volume of 200 µL. Reactions were terminated after a specific time for each cytochrome by the addition of stop solution (ACN:0.5 M tris-HCl, 80:20 vol/vol). Fluorescence in each well was measured using a fluorescence plate reader (EnVision 2104 multilabel plate reader; PerkinElmer, Waltham, MA, US), and percentage of inhibition was calculated.

L. major promastigotes = assay: Luciferase assay for free intracellular ATP levels; format: cell-based, Leishmania major; details: luciferase-expressing L. major promastigotes, DMNPE-luciferin
Procedure: The process described in reference ([62]) was followed. Briefly, L. major promastigotes (Friendlin strain) were transfected with the pLEXSY-hyg2.1 expression vector (Jena Bioscience, Jena, Germany) containing a cytoplasmic form of firefly luciferase mutated at its C-terminal tripeptide to prevent its import into the glycosome. Promastigotes were grown in Roswell Park Memorial Institute 1640 medium (RPMI) supplemented with 10% FBS, 2 mM L-glutamine, 1,000 U/mL penicillin/streptomycin (Gibco, Billings, MT, US), and 100 µg/mL hygromycin (InvivoGen, San Diego, CA, US) at 26°C. To assess variation in the intracellular concentration of free ATP, parasites were harvested at the late exponential phase of growth. After two washes with Hanks balanced buffer, parasites were resuspended in the same buffer supplemented with 10 mM D-glucose at 2.2 × 10^7 parasites/mL. After the addition of DMNPE-caged D-luciferin (GoldBio, St. Louis, MO, US) at 50 µM final concentration, the parasite suspension was aliquoted (90 µL/well) into a black 96-microwell plate (Nunc A/S, Roskilde, Denmark), and luminescence readout was monitored in a POLARstar Galaxy microplate reader (BMG LABTECH GmbH) with a luminescence setup. Once the luminescence reached a plateau, 10 µL of a YAT2150 solution at 10× fold its final concentration was added (t0) and the luminescence value at this point was considered as 100%. […]

P. falciparum = system: P. falciparum; parameters: method as in PMID 36271358; details: read-out: IC50 in in vitro P. falciparum cultures; cited from earlier work

## CCN(CC)c1ccc(/C=C/c2cc[n+](CCCCCCCCCC[n+]3ccc(/C=C/c4ccc(N(CC)CC)cc4)c(C)c3)cc2C)cc1 [YAT2150]
[1]
  in vitro IC10: 150 nM
  in vitro IC40: 300 nM
  IC50: ~500 nM
[1]; Leishmania infantum
  IC50: ~520 nM
[2]; Caco-2, Caco-2, A→B, 37°C
  Papp A→B at 120 min: > 20 ×10⁻⁶ cm/s
[2]; Caco-2, Caco-2, B→A, 37°C
  Papp B→A at 120 min: ~10 ×10⁻⁶ cm/s
[2]; Caco-2, Papp BA/Papp AB
  efflux ratio at 120 min: 0.48
Caco-2 cells
  Papp AB: 20.76 ± 2.01 ×10⁻⁶ cm/s
CYP2C19
  IC50: 1100 nM
L. major promastigotes
  concentration beyond which a concentration-dependent reduction in luminescence (ATP) was observed: > 2 µM
P. falciparum
  IC50: ~90 nM
